Data set [1] relates to intracellular Aβ1-40 and Aβ1-42 in N2a-SwedAPP cells. As to the kind of experiment: Sandwich ELISA of intracellular Aβ in N2a-SwedAPP cells. The format is cell-based, murine. Set-up: key to Aβs (overall influence): ↓ decreased; ↑ increased; ? unchanged. (In an ELISA, binding on a coated surface is turned into a signal by an enzyme label.)
Experimental: N2a-SwedAPP cells were seeded at a density of 4×10^5/mL in DMEM medium in a 6-well plate and cultured for 1 day. After transfer, cells were treated with different doses of RC, CP, FG and RS for 48 hours, then the extracellular media were collected for detection of sAPPα and sAPPβ-sw, and cells were harvested to quantify F1-APP and β-actin by Western blot analysis, as described previously by Durairajan et al. For intracellular APP, APP-CTFs and Aβ preparation, cells were washed with ice-cold PBS twice and solubilized in ice-cold RIPA buffer with protease inhibitor cocktail added. Lysates were collected and centrifuged at 16,000×g for 15 minutes at 4° C. The resulting supernatants were collected, and their protein concentrations were determined with bicinchoninic acid (BCA) protein assay reagent (Thermo Scientific, IL, USA). […] The conditioned media were standardized to total cell lysate protein.
The levels of intracellular Aβ1-40 and Aβ1-42 are quantified by using a sandwich ELISA as previously described by Durairajan et al., 2011 with minor modification. Equal amounts of cell or brain lysates are used for Aβ quantification by sandwich ELISA. The monoclonal antibody 6E10 is used as the capture antibody by adding to ELISA plates (0.2 μg diluted in 0.1 M Na2CO3 (pH 9.6) per well) and incubated overnight at 4° C. The plates are washed with PBS (0.05% Tween 20) and blocked with 4% BlockAce (Serotec, Raleigh, N.C., USA) for 2 hours at room temperature. Equilibrated protein lysates from each treatment (a 100 μL volume is adjusted in all treatment groups by using PBS) are applied in duplicate and incubated at room temperature for 2 hours with constant rotation at 30 rpm. Biotinylated monoclonal anti-Aβ40 5C3 (50 ng per well) and biotinylated monoclonal 8G7 (50 ng per well) antibodies are used for detection of Aβ1-40 and Aβ1-42, respectively, and are diluted in 1% BlockAce and incubated for 2 hours at room temperature. Plates are thoroughly washed with PBS (0.05% Tween 20), and streptavidin conjugated HRP is added for 1 hour at room temperature. Finally the plates are washed four times with PBST before adding the substrate TMB for 30 minutes. Absorbance at 450 nm is measured in duplicate wells after addition of 2 M H2SO4. All ELISA experimental data are from three different days. Synthetic Aβ40 and Aβ42 peptides are used for construction of calibration curves, and Aβ is measured in lysates.
Data set [2] relates to Aβ plaques in TgCRND8 mice. The data set is described as follows: Immunohistochemistry of Aβ plaque burden in TgCRND8 mice. The format is in vivo. The following applies: oral, 25 mg/kg per day, 3 months, 4G8 immunostaining, p<0.05. An excerpt:
All animal handling experiments were approved by the Hong Kong Baptist University Committee on the Use of Human and Animal Subjects in Teaching and Research (HASC, approval #: 12-13/0030). TgCRND8 mice expressing human APP with Swedish (K670N/M671L) and Indiana (V717F) mutations were used to evaluate the effect of baicalein on Aβ. Heterozygous TgCRND8 mice on a C57BL/6J background were used to breed a colony of experimental animals. […]
Immunohistochemistry and image analysis of Aβ plaques is performed on coronal brain sections from TgCRND8 mice treated with baicalein or tap water as described previously by Durairajan et al. 2012. […] Images are obtained with a Nikon fluorescent inverted microscope with digital Nikon camera and analyzed by Image J software. Aβ plaque burden is calculated as the area occupied by the Aβ plaques as a percentage of total area of the brain sections.

In data set [3] the test system is Aβ1-40 and Aβ1-42 in brain of TgCRND8 mice. As to the kind of experiment: Aβ ELISA of serially extracted brain fractions of TgCRND8 mice. The format is in vivo. As to conditions: oral, 25 mg/kg per day. The source says:
(§1) All animal handling experiments were approved by the Hong Kong Baptist University Committee on the Use of Human and Animal Subjects in Teaching and Research (HASC, approval #: 12-13/0030). TgCRND8 mice expressing human APP with Swedish (K670N/M671L) and Indiana (V717F) mutations were used to evaluate the effect of baicalein on Aβ. Heterozygous TgCRND8 mice on a C57BL/6J background were used to breed a colony of experimental animals. The TgCRND8 mouse is an early onset model of AD with visible Aβ deposits in the brains of the animals starting from 3 months of age as described in Chishti M A, Yang D S, Janus C, Phinney A L, Home P, Pearson J, Strome R, Zuker N, Loukides J, French J, Turner S, Lozza G, Grilli M, Kunicki S, Morissette C, Paquette J, Gervais F, Bergeron C, Fraser P E, Carlson G A, George-Hyslop P S, Westaway D. (2001) Early-onset amyloid deposition and cognitive deficits in transgenic mice expressing a double mutant form of amyloid precursor protein 695. J Biol Chem 276: 21562-21570. The animals are housed in a controlled environment under a 12/12 hours light/dark cycle. They are allowed free access to food and water. The oral administration of baicalein (25 mg/kg/d) is commenced at 2 months of age and ended at 5 months before being killed. A single dose (25 mg/kg/d) of baicalein is tested in animal study as no difference in baicalein levels in the brain between doses of 25 and 50 mg/kg/d is found in our pilot study. Control mice orally gavaged with tap water only for the same administration period. At the conclusion of the treatment period, mice were deeply anesthetized by chloral hydrate and perfused with phosphate buffered saline (PBS). The brains were then dissected and processed for Aβ immunostaining
(§2) To detect differences in the level of APP metabolic products among treatment groups, the levels of Aβ, F1-APP, pAPPThr668, CTFs, sAPPα and sAPPβ-sw are measured after a 3-step sequential extraction using Tris buffered saline (TBS) (pH 7.4), 1% Triton X-100/TBS (TBSX) and formic acid (FA) methods as described in Youmans K L, Leung S, Zhang J, Maus E, Baysac K, Bu G, Vassar R, Yu C, LaDu M J. (2011) Amyloid-β42 alters apolipoprotein E solubility in brains of mice with five familial AD mutations. J Neurosci Methods 196: 51-59. All extraction buffers also contained protease and phosphatase inhibitor cocktail (Roche Diagnostics, Basel, Switzerland). Snap frozen tissue is homogenized in 15 volumes (w/v) of TBS homogenization buffer and centrifuged at 100,000×g for 1 h at 4° C. using a Type 70 Ti rotor in an Optima™ L-80XP Ultracentrifuge (Beckman Coulter, Fla., USA). The TBS-soluble fraction is aliquoted, frozen in liquid nitrogen and stored at −80° C. The pellets are resuspended in 15 volumes of TBSX and kept on ice for 30 minutes, followed by a second centrifugation at 100,000×g for 1 hour at 4° C. The TBSX soluble fraction is aliquoted, frozen and stored as for the TBS fraction. The TBSX-insoluble pellet is resuspended in 2 mL of 70% FA and centrifuged at 100,000×g at 4° C. for 1 hour. The FA extracts are neutralized by the addition of 20 volumes of 1 M Tris pH 11, aliquoted and stored at −80° C. Total protein content in TBS- and TBSX-extracts is determined via BCA assay. […]
The levels of intracellular Aβ1-40 and Aβ1-42 are quantified by using a sandwich ELISA as previously described by Durairajan et al., 2011 with minor modification. Equal amounts of cell or brain lysates are used for Aβ quantification by sandwich ELISA. […]

The subject of data set [4] is APP processing (sAPPs, F1-APP, pAPPThr668, CTFs) in brain of TgCRND8 mice. As to the kind of experiment: Western blot of APP metabolic products in brain fractions of TgCRND8 mice. The data set is classed as in vivo. As to conditions: oral, 25 mg/kg per day.
Text: as §1
as §2, with “assay. Total protein in FA-extracts is determined by Bradford Protein Microassay (Bio-Rad, CA, USA).” for “assay.”

The test system of a further data set is TgCRND8 mice. The data set is described as follows: Tolerability of chronic oral administration in TgCRND8 mice. The format is in vivo. As to conditions: 25 mg/kg per day, nearly 3 months.
Text: as §1, with “A single dose (25 mg/kg/d) of baicalein is tested in animal study as no difference in baicalein levels in the brain between doses of 25 and 50 mg/kg/d is found in our pilot study. Control mice orally gavaged with tap water only for the same administration period. At the conclusion of the treatment period, mice were deeply anesthetized by chloral hydrate and perfused with phosphate buffered saline (PBS). The brains were then dissected and processed for Aβ immunostaining” left out

Data set [5] in a line: Baicalein concentration in brain of TgCRND8 mice. The data set is classed as in vivo.
For data set [6] the following is noted: rat, in vivo; cited from earlier work.

Molecules are shown by their SMILES.

In the case of `O=c1cc(-c2ccccc2)oc2cc(O)c(O)c(O)c12` [baicalein], in data set [1] (12.5 μM, 48 h), the “augmentation of intracellular Aβ1-40, fold of basal level” value is reported as 1.23 fold and the “augmentation of intracellular Aβ1-42, fold of basal level” value came to 1.38 fold. Besides, the “Aβs (overall influence)” value in data set [1] (N2a-SwedAPP cells) is “↑”. Further, the “increase of area occupied by Aβ deposits in cortex and hippocampus” value in data set [2] was determined as 44%. Further, the “effect on TBS soluble Aβ levels in brain” value in data set [3] (TBS fraction) was “did not significantly affect”. Moreover, in data set [3] (TBSX fraction), the “increase of Aβ1-40 in TBSX-soluble brain fraction” value is recorded as 35% and the “increase of Aβ1-42 in TBSX-soluble brain fraction” value worked out at 65%. Also, in data set [3] (formic acid fraction), the “increase of Aβ1-40 in FA brain fraction” value came to 80% and the “increase of Aβ1-42 in FA brain fraction” value worked out at 32%. In addition, in data set [4] (TBS fraction), the “increase in sAPPα signal intensity in brain” value was 44% and the “increase in sAPPβ-sw signal intensity in brain” value is listed as 35%. In data set [4] (TBSX fraction), the “increase in level of CTFs in brain” value was 40%, the “increase in level of F1-APP in brain” value stood at 30% and the “increase in level of pAPP in brain” value was 41%. In the data set on TgCRND8 mice, the adverse side effects entry is recorded as “nor did it cause any notable adverse side effects” and the “change of animal body weight” value is “did not significantly change”. The “mean concentration of baicalein in the brain” value in data set [5] (TgCRND8 mice, orally administered 25 mg/kg) was 120 ± 10 ng/mL. For the same compound, the “difference in baicalein levels in the brain between doses” value in data set [5] (mouse, in vivo) is recorded as “no difference”. For the same compound, the “brain bioavailability of baicalein (greater than berberine)” value in data set [6] is 1 to 10 µM.

The values above are taken from patent publication US9375457B2, “Composition comprising Rhizoma coptidis, Cortex phellodendri and Fructus gardeniae and for treating neurodegenerative diseases” (Hong Kong Baptist University, priority 2013, dated 2016).
